The values that follow come from PubChem BioAssay (NCI).

Where “and” joins values, the source holds several entries; their conditions need not be identical. Equal entries are not always repeated.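 Test compounds were applied to cells in 96-well plates for 48 hours at 5 doses. GI50 marks 50% less growth. Definition used: TGI = concentration required for complete inhibition of growth.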 Where a SMILES comes first, the peptide text is derived from it. [ ]: non-standard residue; d: D form. The star is where a group is joined. NMeF = CN[C@@H](Cc1ccccc1)C(=O)O; NMeV = CN[C@H](C(=O)O)C(C)C; Boc = CC(C)(C)OC(=O)*; OBn = c1ccc(CO*)cc1 Some results are limits rather than exact numbers.

What all share (test): DTP human tumour cell line panel, 48 h
The test system of test [1] is SNB-78 CNS.
For test [2], the system named is U251 CNS.
Test [3] deals with HCT-116 colon.
For test [4], the system named is SK-MEL-28 melanoma.
Test [5] deals with CCRF-CEM leukemia.
The subject of test [6] is LOX IMVI melanoma.
Test [7] relates to NCI-H460 lung.
The test system of test [8] is M19-MEL melanoma.
Test [9] concerns UACC-62 melanoma.
For test [10], the system named is OVCAR-8 ovarian.

For `Cc1ccc(C(=O)C#Cc2c[nH]c(=O)[nH]c2=O)cc1`, the TGI (commonly the concentration at which net growth stops) is 28.5 µM in test [1]; 28.2 µM in test [2]; 18.5 µM in test [3]; 30.8 µM in [4]; 18.8 µM in test [5]; 15 µM in test [6]. Also, the TGI in test [7] was determined as 33.8 µM; in test [8] it was 36.5 µM; in test [9], 21.8 µM; in test [10], 25.1 µM.

As to `CNC(=O)NC(CCCCNC(=O)OCc1ccccc1)C(=O)OCc1ccccc1` (centres undefined), the TGI in test [1] was above 91.7 µM; in test [2], above 97.1 µM; in [3] it was above 100 µM; in test [4], 41.5 µM; in [5], 71.8 µM; in test [6] it was above 78.2 µM. Besides, the TGI in test [7] was above 100 µM; in test [8], 40.7 µM; in [9], 33.1 µM; in test [10], above 87.5 µM.

On to `CSc1nc(C)c(Br)c(=O)n1C1OC(COC(C)=O)C(OC(C)=O)C(OC(C)=O)C1OC(C)=O` (centres undefined), for which the GI50 (in general, the concentration giving 50% growth inhibition) in test [1] was 17 µM and 63.6 µM; in [3], > 88.4 µM and 35 µM; in [4], > 100 µM and 21 µM; in [8] it was > 100 µM and 44.6 µM; in [9], 97 µM and 23.3 µM; in test [10], > 100 µM and 36 µM. For the same compound, the TGI in test [1] is 64.8 µM and > 100 µM; in test [2] it was > 100 µM and 49.3 µM; in [3], above 100 µM; in test [4], > 100 µM and 57 µM; in test [5] it was above 100 µM; in test [6] it was above 100 µM. Besides, the TGI in [7] is above 100 µM; in test [8], above 100 µM; in [9] it was > 100 µM and 44.1 µM; in [10] it was above 100 µM.

For the compound `NCCCNCCSSC/C=C\CSSCCNCCCN`, in [1], the GI50 is 55 µM and 24.8 µM. The TGI in [1] was above 100 µM; in test [2] it was above 100 µM; in test [4], above 100 µM; in test [5], 32.3 µM and 62.5 µM; in test [6] it was above 100 µM; in test [7], above 100 µM. Also, the TGI in [8], in [9] and in [10] was above 100 µM throughout.

As for `COC1OC(COS(=O)(=O)c2ccc(C)cc2)C(O)C(OS(=O)(=O)c2ccc(C)cc2)C1OS(=O)(=O)c1ccc(C)cc1` (centres undefined), the TGI in test [1], in test [2], in test [3], in test [4], in test [5] and in test [7] was above 100 µM throughout. The TGI in test [8] and in test [10] was above 100 µM in each case.

Take `NC(=O)Nc1c([N+](=O)[O-])cc(C(F)(F)F)cc1[N+](=O)[O-]`: the total growth inhibition concentration (TGI) in test [1], in [2], in test [3], in test [4], in [5] and in test [6] was above 100 µM in each case. The TGI in [7], in [9] and in test [10] was above 100 µM throughout.

Consider `CC1=NC(C(C)C)C(=O)O1` (centres undefined), for which the TGI is above 100 µM in test [1]; above 100 µM in test [2]; 34.1 µM in test [3]; above 100 µM in test [4]; above 100 µM in test [5]; above 100 µM in [7]. The TGI in test [8], in [9] and in test [10] was above 100 µM throughout.

As for `CC(C)[C@@H](C(=O)N1CCC[C@H]1C(=O)OCc1ccccc1)N(C)C(=O)[C@H](C(C)C)N(C)C(=O)[C@H](Cc1ccccc1)N(C)C(=O)[C@H](NC(=O)OC(C)(C)C)C(C)C` (Boc-[dV][NMeF][NMeV][NMeV]P-OBn), the TGI in [1] was above 100 µM; in [2] it was above 100 µM; in test [3] it was above 100 µM; in test [4], above 100 µM; in [5], above 100 µM; in [6] it was > 50 µM and 26.6 µM. For the same compound, the TGI in [7], in [8], in [9] and in test [10] was above 100 µM throughout. Also, the GI50 in test [3] is 19.6 µM; in test [5], 36.9 µM; in [6], 12.9 µM; in test [7] it was 17.5 µM.

Consider `O=C1OC(c2ccccc2)=N/C1=C\c1cc(Cl)ccc1Cl`, for which the TGI in [1] was above 100 µM; in test [2], above 100 µM; in test [3], above 100 µM; in test [4] it was above 100 µM; in test [5] it was 66.8 µM; in test [7], above 100 µM. Further, the TGI in test [8] and in test [9] was above 100 µM throughout.

With `CC(C)NC(=O)OCc1c(COC(=O)NC(C)C)c(-c2ccc(Cl)c(Cl)c2)n2c1CCC2`, the TGI in [1] came to 41.9 µM; in test [2] it was 71.8 µM; in [3], 73 µM; in [4], 75.1 µM; in test [5] it was 44.6 µM; in [6], 66.6 µM. For the same compound, the TGI in [7] stood at 68.3 µM; in [8] it was 61.3 µM; in test [9], 53.9 µM; in test [10], 73.4 µM.

As to `CCCc1nc(NC#N)nc(C(=O)NC23CC4CC(CC(C4)C2)C3)c1C`, the TGI in test [1], in test [2], in test [3], in test [4], in [5] and in [6] was above 100 µM throughout. Moreover, the TGI in [7], in [8], in test [9] and in test [10] was above 100 µM in each case.

As for `CCOC(=O)N[C@@H]1C2CC(=O)C(O2)[C@@H]1OC` (some centres undefined), the TGI in [1], in test [2], in test [3], in [4], in [5] and in [6] was above 100 µM throughout. Also, the TGI in [7], in test [8], in test [9] and in [10] was above 100 µM in each case.

On to `COc1ccc(C(=O)C(C(=O)C(=O)NC2C3CC4CC(C3)CC2C4)c2ccc(OC)cc2)cc1` (centres undefined), for which the TGI in [1], in test [2], in [3], in [4], in [5] and in [6] was above 100 µM each time. Further, the TGI in test [7], in test [8], in [9] and in [10] was above 100 µM in each case.
